Like-named read-outs stand apart in the source and are kept apart here.
Assays:
Neisseria gonorrhoeae = assay: MIC by broth microdilution; assay type: cell-based; conditions: internal code L997, 5% carbon dioxide, 48 hours; for MIC: Neisseria gonorrhoeae, read-out: MIC of the compounds
Strept. pneumoniae = assay: MIC by broth microdilution; assay type: cell-based; conditions: internal code L44; for MIC: Streptococcus pneumoniae, read-out: MIC of the compounds
[1] = system: Propionibact. acnes ATCC 6919; assay: MIC by broth microdilution; assay type: cell-based, Propionibacterium acnes; conditions: internal code L1014, anaerobic, 48 hours
Staphylococcus aureus = assay: MIC by broth microdilution; assay type: cell-based; conditions: internal code L165; for MIC: Staphylococcus aureus, read-out: MIC of the compounds
[2] = system: Proteus vulgaris ATCC 881; assay: MIC by broth microdilution; assay type: cell-based; conditions: internal code L79; for MIC: Proteus vulgaris, ATCC881, read-out: MIC of the compounds
[3] = system: Esch. coli K12 rifa-r^(1); assay: MIC by broth microdilution; assay type: cell-based, Escherichia coli; conditions: internal code G1064; rifampicin resistant strain, moderately resistant
[4] = system: Enterococc. faecalis ATCC 7080; assay: MIC by broth microdilution; assay type: cell-based, Enterococcus faecalis; conditions: internal code L149; for MIC: Enterococcus faecalis, ATCC7080, read-out: MIC of the compounds
[5] = system: Esch. coli K12 hyperpermeable; assay: MIC by broth microdilution; assay type: cell-based, Escherichia coli; conditions: internal code G1640; hyperpermeable
[6] = system: Haemoph. influenzae ATCC 19418; assay: MIC by broth microdilution; assay type: cell-based, Haemophilus influenzae; conditions: internal code L970, 5% carbon dioxide, 48 hours; for MIC: Haemophilus influenzae, ATCC19418, read-out: MIC of the compounds
Streptococcus pyogenes = assay: MIC by broth microdilution; assay type: cell-based; conditions: internal code L49; for MIC: Streptococcus pyogenes, read-out: MIC of the compounds
Staph. aureus rifa-r^(1) = assay: MIC by broth microdilution; assay type: cell-based; conditions: for MIC of the compounds: internal code L721, rifampicin resistant strain, moderately resistant; for MIC: Staphylococcus aureus, read-out: MIC of the compounds
[7] = system: Staph. epidermidis ATCC 12228; assay: MIC by broth microdilution; assay type: cell-based; conditions: internal code L147; for MIC: Staphylococcus epidermidis, ATCC12228, read-out: MIC of the compounds
[8] = system: Bacteroides fragilis ATCC 23745; assay: MIC by broth microdilution; assay type: cell-based; conditions: internal code L1010, anaerobic, 48 hours
[9] = system: Pseudomonas aerug. ATCC10145; assay: MIC by broth microdilution; assay type: cell-based, Pseudomonas aeruginosa; conditions: internal code L4; for MIC: Pseudomonas, ATCC10145, read-out: MIC of the compounds
Escherichia coli = assay: MIC by broth microdilution; assay type: cell-based; conditions: internal code L47; for MIC: Escherichia coli, read-out: MIC of the compounds
Staph. aureus rifa-r^(2) = assay: MIC by broth microdilution; assay type: cell-based; conditions: for MIC of the compounds: internal code L1282, rifampicin resistant strain, highly resistant; for MIC: Staphylococcus aureus, read-out: MIC of the compounds
[10] = system: Staph. haemolyticus rifa-r^(2); assay: MIC by broth microdilution; assay type: cell-based; conditions: for MIC of the compounds: internal code L602, rifampicin resistant strain, highly resistant; for MIC: Staphylococcus haemolyticus, read-out: MIC of the compounds
[11] = system: Bacteroides fragilis ATCC 25285; assay: MIC by broth microdilution; assay type: cell-based; conditions: internal code L1011, anaerobic, 48 hours
Staph. aureus Smith = assay: MIC by broth microdilution; assay type: cell-based; conditions: internal code L819
[12] = system: Staphylococcus aureus Smith (Int. code L 819); assay: Experimental septicemia in mice; assay type: in vivo; conditions: Staphylococcus aureus, 168 h, treated once immediately after infection, survival on the 7th day
Protocol: Some compounds of the invention were also tested in experimental septicemia in mice infected with Staphylococcus aureus Smith (Int. code L 819). For this purpose, groups of five mice were infected intraperitoneally with about 1 x 10^6 CFU of S. aureus Smith suspended in 0.5 ml of Difco bacteriological mucin. Untreated animals died within 48 hours. The other animals were treated once immediately after infection. On the 7th day the value of ED50 (expressed in mg/kg) was calculated by the method of Spearman-[…]., Statistical method in biological assay, page 254, C. Griffin Ltd., London, 1952), on the basis of the percentage of animals surviving at each dose.

[13] = sc, subcutaneous, read-out: ED50 SC route

Row | Compound | MIC of the compounds (Neisseria gonorrhoeae) [µg/mL] | MIC of the compounds (Strept. pneumoniae) [µg/mL] | MIC of the compounds [1] [µg/mL] | MIC of the compounds (Staphylococcus aureus) [µg/mL] | MIC of the compounds [2] [µg/mL] | MIC of the compounds [4] [µg/mL] | MIC of the compounds [6] [µg/mL] | MIC of the compounds (Streptococcus pyogenes) [µg/mL] | MIC of the compounds (Staph. aureus rifa-r^(1)) [µg/mL] | MIC of the compounds [7] [µg/mL] | MIC of the compounds [9] [µg/mL] | MIC of the compounds (Escherichia coli) [µg/mL] | MIC of the compounds (Staph. aureus rifa-r^(2)) [µg/mL] | MIC of the compounds [10] [µg/mL] | MIC (Neisseria gonorrhoeae) [µg/mL] | MIC (Strept. pneumoniae) [µg/mL] | MIC (Staphylococcus aureus) [µg/mL] | MIC [2] [µg/mL] | MIC [4] [µg/mL] | ED50 [12, 13] [mg/kg] | other results
1 | 36-Bromo-2'-(diethylamino)rifamycin P [Compound C9] | 0.5 | 0.13 | 0.06 | 0.06 | 32 | 2 | 0.25 | 0.13 | 8 | 0.06 | 16 | 16 | > 128 | ≥ 128 | – | – | – | – | – | – | MIC of the compounds [3]: > 128 µg/mL; MIC of the compounds [5]: 2 µg/mL; MIC of the compounds [8]: 0.13 µg/mL
2 | 36-{[1-Ethyl-1,4-dihydro-1-methyl-4-oxo-1,8-naphthyridin-3-yl)carbonyloxy}-3-{[(4-methyl-1-piperazinyl)imino]methyl}rifamycin SV [Compound C27] | 0.13 | 0.008 | 0.03 | 0.03 | 16 | 2 | 0.25 | 0.008 | 0.25 | 0.016 | 32 | 32 | 16 | 16 | – | – | – | – | – | – | MIC of the compounds [11]: 0.13 µg/mL; MIC of the compounds (Staph. aureus Smith): 0.016 µg/mL
3 | CCn1cc(C(=O)OCC(=O)O[C@H]2[C@H](C)[C@H](O)[C@H](C)[C@@H](O)[C@@H](C)/C=C/C=C(/C)C(=O)NC3=CC(=O)c4c(c(O)c(C)c5c4C(=O)[C@@](C)(O/C=C/[C@H](OC)[C@H]2C)O5)C3=O)c(=O)c2cc(F)c(N3CCN(C)CC3)cc21 [Compound C23, 36-{2-[1-Ethyl-6-fluoro-1,4-dihydro-7-(4-methyl-1-piperazinyl)-4-oxo-3-quinolinyl]carbonyloxy} rifamycin S] | – | – | – | – | – | – | – | – | – | – | – | – | – | – | 8 | 0.004 | 0.06 | 128 | 0.13 | 32.9 | MIC ([1]; Cutibacterium acnes, ATCC6919, read-out: MIC of the compounds): 2 µg/mL; MIC [6]: 2 µg/mL; MIC (Streptococcus pyogenes): 0.004 µg/mL; MIC (Staph. aureus rifa-r^(1)): 0.06 µg/mL; MIC [7]: 0.06 µg/mL; MIC ([8]; Bacteroides fragilis, ATCC23745, read-out: MIC of the compounds): 8 µg/mL; MIC [9]: > 128 µg/mL; MIC (Escherichia coli): 128 µg/mL; MIC (Staph. aureus rifa-r^(2)): 1 µg/mL; MIC [10]: 4 µg/mL
4 | CCn1cc(C(=O)OCC(=O)O[C@H]2[C@H](C)[C@H](O)[C@H](C)[C@@H](O)[C@@H](C)/C=C/C=C(/C)C(=O)Nc3c(C=NN4CCN(C)CC4)c(O)c4c5c(c(C)c(O)c4c3O)O[C@](C)(O/C=C/[C@H](OC)[C@H]2C)C5=O)c(=O)c2cc(F)c(N3CCN(C)CC3)cc21 [Compound C25, 36-{[1-Ethyl-6-fluoro-1,4-dihydro-7-(4-methyl-1-piperazinyl)-4-oxo-3-quinolinyl]carbonyloxy}-3-{[(4-methyl-1-piperazinyl)imino]methyl}rifamycin SV] | – | – | – | – | – | – | – | – | – | – | – | – | – | – | 0.5 | 0.016 | 0.06 | 64 | 2 | 4.7 | MIC ([11]; Bacteroides fragilis, ATCC25285, read-out: MIC of the compounds): 2 µg/mL; MIC (Staph. aureus Smith; Staphylococcus aureus, read-out: MIC of the compounds): 0.06 µg/mL; ED50 ([12]; intravenous, read-out: ED50 IV route): 2.9 mg/kg; MIC [6]: 1 µg/mL; MIC (Streptococcus pyogenes): 0.03 µg/mL; MIC (Staph. aureus rifa-r^(1)): 0.13 µg/mL; MIC [7]: 0.13 µg/mL; MIC [9]: 128 µg/mL; MIC (Escherichia coli): 64 µg/mL; MIC (Staph. aureus rifa-r^(2)): 1 µg/mL; MIC [10]: 1 µg/mL
